In US11046694B2, “Compounds and methods for treating bacterial infections” (Entasis Therapeutics, Inc., priority 2018, dated 2021):
≈ marks a conversion by molar mass, not a printed value. Counter-ions that a name gives are not always drawn. Like-named read-outs stand apart in the source and are kept apart here.

Key:
[1] = target: P. aeruginosa PBP3 (Pseudomonas aeruginosa, UniProt G3XD46); assay type: biochemical; details: P. aeruginosa PBP3 60 nM, BOCILLIN FL 30 nM, pH 7.0
[2] = test system: E. coli (ATCC25922); assay: MIC against E. coli; details: Escherichia coli, ATCC25922, read-out: E. coli MIC (ATCC25922) (mg/L)
[3] = test system: A. baumannii (ARC3495); assay: MIC against A. baumannii; details: Acinetobacter baumannii, read-out: A. baumannii MIC (ARC3495) (mg/L)
[4] = test system: K. pneumoniae (ATCC700603); assay: MIC against K. pneumoniae; details: Klebsiella pneumoniae, ATCC700603, read-out: K. pneumoniae MIC (ATCC700603)
[5] = test system: P. aeruginosa WT (PAO1); assay: MIC, CLSI broth microdilution, P. aeruginosa; assay type: cell-based; details: Pseudomonas aeruginosa
[6] = target: P. aeruginosa PBP1a (Pseudomonas aeruginosa, UniProt Q07806); assay type: biochemical; details: P. aeruginosa PBP1a 60 nM, BOCILLIN FL 30 nM, pH 7.0
P. aeruginosa PBP1a, sequence (Q07806 whole entry): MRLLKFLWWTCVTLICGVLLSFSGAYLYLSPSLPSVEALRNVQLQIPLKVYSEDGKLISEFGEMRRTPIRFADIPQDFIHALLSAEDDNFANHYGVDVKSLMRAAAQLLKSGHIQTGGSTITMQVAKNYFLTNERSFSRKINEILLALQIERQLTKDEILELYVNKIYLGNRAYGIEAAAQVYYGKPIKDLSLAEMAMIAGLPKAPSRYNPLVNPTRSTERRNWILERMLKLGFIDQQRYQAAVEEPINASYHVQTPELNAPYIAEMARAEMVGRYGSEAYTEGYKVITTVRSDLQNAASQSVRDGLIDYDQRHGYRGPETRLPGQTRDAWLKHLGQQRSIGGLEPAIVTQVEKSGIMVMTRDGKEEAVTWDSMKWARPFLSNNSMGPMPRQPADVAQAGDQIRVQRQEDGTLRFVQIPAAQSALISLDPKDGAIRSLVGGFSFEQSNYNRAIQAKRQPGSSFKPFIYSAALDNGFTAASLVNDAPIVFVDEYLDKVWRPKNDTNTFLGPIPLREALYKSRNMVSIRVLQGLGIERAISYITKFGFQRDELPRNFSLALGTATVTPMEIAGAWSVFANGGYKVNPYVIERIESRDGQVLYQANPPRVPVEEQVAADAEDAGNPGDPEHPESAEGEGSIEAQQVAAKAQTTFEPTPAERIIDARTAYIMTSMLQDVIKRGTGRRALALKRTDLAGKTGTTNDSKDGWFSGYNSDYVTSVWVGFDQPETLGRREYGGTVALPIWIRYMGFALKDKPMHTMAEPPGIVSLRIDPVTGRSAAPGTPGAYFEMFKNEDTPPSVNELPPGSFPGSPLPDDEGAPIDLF

[7] = PAO1, CLSI broth microdilution, read-out: P. aeruginosa WT (PAO1) MIC

P. aeruginosa PBP3, sequence (G3XD46 whole entry): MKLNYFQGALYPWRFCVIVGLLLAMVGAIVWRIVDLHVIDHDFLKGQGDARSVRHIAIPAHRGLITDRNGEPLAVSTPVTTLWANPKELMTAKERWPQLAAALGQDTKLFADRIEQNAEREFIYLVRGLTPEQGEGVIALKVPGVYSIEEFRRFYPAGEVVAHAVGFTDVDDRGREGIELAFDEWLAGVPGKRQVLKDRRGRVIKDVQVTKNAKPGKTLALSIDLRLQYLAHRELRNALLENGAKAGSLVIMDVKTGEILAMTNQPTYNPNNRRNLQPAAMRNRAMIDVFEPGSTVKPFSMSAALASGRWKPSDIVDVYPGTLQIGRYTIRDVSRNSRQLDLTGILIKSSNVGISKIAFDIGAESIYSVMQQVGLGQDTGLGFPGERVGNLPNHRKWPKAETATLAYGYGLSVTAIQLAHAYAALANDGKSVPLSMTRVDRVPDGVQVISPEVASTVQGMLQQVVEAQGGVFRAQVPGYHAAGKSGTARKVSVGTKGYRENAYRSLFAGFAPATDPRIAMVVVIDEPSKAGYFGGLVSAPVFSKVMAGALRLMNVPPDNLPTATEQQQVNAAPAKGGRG

Structure (SMILES)	PBP3 acylation rate, k(on) (M^−1 · s^−1) [1]	MIC [2] [mg/L]	MIC [3] [mg/L]	MIC [4] [µg/mL]	MIC [5, 7] [mg/L]	PBP1a acylation rate, k(on) (M^−1 · s^−1) [6]	MIC ([5]; PAO1, read-out: P. aeruginosa WT (PAO1) MIC (mg/L)) [mg/L]
CN/C(=N\OC(=O)NCc1cnn(C)c1)[C@@H]1c2c(cnn2C)[C@@H]2CN1C(=O)N2OS(=O)(=O)O (racemic) [Example 15, (4R,8S)-1-methyl-8-((Z)—N-methyl-N′-((((1-methyl-1H-pyrazol-4-yl)methyl)carbamoyl)oxy)carbamimidoyl)-6-oxo-4,8-dihydro-1H-4,7-methanopyrazolo[3,4-e][1,3]diazepin-5(6H)-yl hydrogen sulfate]	*** (*** represents a k(on) > 10,000 M^−1 · s^−1)	< 8	> 16	> 16	> 16	** (** represents a k(on) of 100 to 10,000 M^−1 · s^−1)	–
CN/C(=N\OC(=O)NCCC(N)=O)[C@@H]1c2c(cnn2C)[C@@H]2CN1C(=O)N2OS(=O)(=O)O (racemic) [Example 16]	*** (*** represents a k(on) > 10,000 M^−1 · s^−1)	8 to 16 (≈ 17.4 to 34.8 µM)	> 16	> 16	8 to 16 (≈ 17.4 to 34.8 µM)	** (** represents a k(on) of 100 to 10,000 M^−1 · s^−1)	–
CN/C(=N\OC(=O)NO)[C@@H]1c2c(cnn2C)[C@@H]2CN1C(=O)N2OS(=O)(=O)O (racemic) [Example 17]	*** (*** represents a k(on) > 10,000 M^−1 · s^−1)	8 to 16 (≈ 19.7 to 39.5 µM)	> 16	8 to 16 (≈ 19.7 to 39.5 µM)	8 to 16 (≈ 19.7 to 39.5 µM)	** (** represents a k(on) of 100 to 10,000 M^−1 · s^−1)	–
CN/C(=N\OC(=O)NCCN)[C@@H]1c2c(cnn2C)[C@@H]2CN1C(=O)N2OS(=O)(=O)O (racemic) [Example 18, (4R,8S)-8-((Z)—N′-(((2-aminoethyl)carbamoyl)oxy)-N-methylcarbamimidoyl)-1-methyl-6-oxo-4,8-dihydro-1H-4,7-methanopyrazolo[3,4-e][1,3]diazepin-5(6H)-yl hydrogen sulfate]	*** (*** represents a k(on) > 10,000 M^−1 · s^−1)	< 8	8 to 16	8 to 16	< 8	** (** represents a k(on) of 100 to 10,000 M^−1 · s^−1)	–
CN/C(=N\OC(=O)NCCCCN)[C@@H]1c2c(cnn2C)[C@@H]2CN1C(=O)N2OS(=O)(=O)O (racemic) [Example 19]	*** (*** represents a k(on) > 10,000 M^−1 · s^−1)	8 to 16 (≈ 17.4 to 34.7 µM)	8 to 16 (≈ 17.4 to 34.7 µM)	> 16	< 8	** (** represents a k(on) of 100 to 10,000 M^−1 · s^−1)	–
CNC(=O)O/N=C(\NC)[C@@H]1c2c(cnn2C)[C@@H]2CN1C(=O)N2OS(=O)(=O)O (racemic) [Example 20]	*** (*** represents a k(on) > 10,000 M^−1 · s^−1)	8 to 16 (≈ 19.8 to 39.7 µM)	8 to 16 (≈ 19.8 to 39.7 µM)	> 16	–	** (** represents a k(on) of 100 to 10,000 M^−1 · s^−1)	8 to 16 (≈ 19.8 to 39.7 µM)
CN/C(=N\OC(=O)N(C)C)[C@@H]1c2c(cnn2C)[C@@H]2CN1C(=O)N2OS(=O)(=O)O (racemic) [Example 21]	*** (*** represents a k(on) > 10,000 M^−1 · s^−1)	< 8	> 16	> 16	> 16	** (** represents a k(on) of 100 to 10,000 M^−1 · s^−1)	–
CN/C(=N\OC(=O)NCC(=O)O)[C@@H]1c2c(cnn2C)[C@@H]2CN1C(=O)N2OS(=O)(=O)O (racemic) [Example 22]	*** (*** represents a k(on) > 10,000 M^−1 · s^−1)	< 8	> 16	8 to 16 (≈ 17.9 to 35.8 µM)	8 to 16 (≈ 17.9 to 35.8 µM)	** (** represents a k(on) of 100 to 10,000 M^−1 · s^−1)	–
CN/C(=N\OC(=O)NCC(N)=O)[C@@H]1c2c(cnn2C)[C@@H]2CN1C(=O)N2OS(=O)(=O)O (racemic) [Example 23]	*** (*** represents a k(on) > 10,000 M^−1 · s^−1)	8 to 16 (≈ 17.9 to 35.8 µM)	> 16	8 to 16 (≈ 17.9 to 35.8 µM)	8 to 16 (≈ 17.9 to 35.8 µM)	** (** represents a k(on) of 100 to 10,000 M^−1 · s^−1)	–
CN/C(=N\OC(=O)N[C@H]1CCNC1)[C@@H]1c2c(cnn2C)[C@@H]2CN1C(=O)N2OS(=O)(=O)O (racemic) [Example 24]	*** (*** represents a k(on) > 10,000 M^−1 · s^−1)	8 to 16 (≈ 17.4 to 34.9 µM)	8 to 16 (≈ 17.4 to 34.9 µM)	8 to 16 (≈ 17.4 to 34.9 µM)	< 8	** (** represents a k(on) of 100 to 10,000 M^−1 · s^−1)	–
